Laboratory results taken from ChEMBL document CHEMBL5303573, “Mapping human microbiome drug metabolism by gut bacteria and their genes” (Nature, 2019).

Columns and labels:
Format in all cases: ADME
Set-up in all cases: dose 2 uM, timepoint 0, 1, 2, 4, 6, 8, 12, 18, 24 hours
Conditions in all cases: 2 µM
[1] = (§1) The drug is tested on the gut metagenome community of MV02 with ENA study accession number: PRJEB31790 and ENA sample accession number: SAMEA5537483 for biotransformation. The drug concentrations were measured over 9 timepoints collected between 0 and 24 hours of incubation by liquid-chromatography-coupled mass spectrometry (LC–MS)
[2] = as §1, with “MV05” for “MV02”, “SAMEA5537486” for “SAMEA5537483”
[3] = as §1, with “MV06” for “MV02”, “SAMEA5537487” for “SAMEA5537483”
[4] = as §1, with “MV08” for “MV02”, “SAMEA5537489” for “SAMEA5537483”
[5] = as §1, with “MV10” for “MV02”, “SAMEA5537491” for “SAMEA5537483”
[6] = as §1, with “MV11” for “MV02”, “SAMEA5537492” for “SAMEA5537483”
[7] = as §1, with “MV13” for “MV02”, “SAMEA5537494” for “SAMEA5537483”
[8] = as §1, with “MV14” for “MV02”, “SAMEA5537495” for “SAMEA5537483”
[9] = as §1, with “MV15” for “MV02”, “SAMEA5537496” for “SAMEA5537483”
[10] = as §1, with “MV16” for “MV02”, “SAMEA5537497” for “SAMEA5537483”
[11] = as §1, with “MV17” for “MV02”, “SAMEA5537498” for “SAMEA5537483”
[12] = as §1, with “MV19” for “MV02”, “SAMEA5537500” for “SAMEA5537483”
[13] = as §1, with “MV21” for “MV02”, “SAMEA5537502” for “SAMEA5537483”
[14] = as §1, with “MV22” for “MV02”, “SAMEA5537503” for “SAMEA5537483”
[15] = as §1, with “MV27” for “MV02”, “SAMEA5537508” for “SAMEA5537483”
[16] = as §1, with “MV28” for “MV02”, “SAMEA5537509” for “SAMEA5537483”

Bacterial Biotransformation [1]: Compound NOT metabolized
Bacterial Biotransformation [2]: Compound NOT metabolized
Bacterial Biotransformation [3]: Compound NOT metabolized
Bacterial Biotransformation [4]: Compound NOT metabolized
Bacterial Biotransformation [5]: Compound metabolized
Bacterial Biotransformation [6]: Compound NOT metabolized
Bacterial Biotransformation [7]: Compound NOT metabolized
Bacterial Biotransformation [8]: Compound NOT metabolized
Bacterial Biotransformation [9]: Compound NOT metabolized
Bacterial Biotransformation [10]: Compound NOT metabolized
Bacterial Biotransformation [11]: Compound NOT metabolized
Bacterial Biotransformation [12]: Compound NOT metabolized
Bacterial Biotransformation [13]: Compound NOT metabolized
Bacterial Biotransformation [14]: Compound NOT metabolized
Bacterial Biotransformation [15]: Compound NOT metabolized
Bacterial Biotransformation [16]: Compound NOT metabolized
SMILES: C[C@@H]1C[C@H]2[C@@H]3CCC4=CC(=O)C=C[C@]4(C)[C@@]3(F)[C@@H](O)C[C@]2(C)[C@@]1(O)C(=O)CO [DEXAMETHASONE]
